Source: patent US9850283B2, “Macrocyclic inhibitors of the PD-1/PD-L1 and CD80(B7-1)/PD-L1 protein/protein interactions” (BRISTOL-MYERS SQUIBB COMPANY, priority 2013, dated 2017)
Read-outs that look alike come from different tables or passages of the source. Starred links: 1 amine or outer side, 2 acyl side, 3 side chain; linkers in the order of their positions; H or OH if unused. Positions of bridges follow the written chain, without caps; N, C: chain ends. Non-standard residues stand in square brackets, D forms with d. Residues, ends and D or L forms follow the SMILES beside them. ξ: configuration not given here. X2 = CCOc1ccc(-c2[nH]c3ccccc3c2C[C@H](N[*:1])C(=O)[*:2])cc1; Phe(4-tBu) = CC(C)(C)c1ccc(C[C@H](N)C(=O)O)cc1; Trp(7-aza) = N[C@@H](Cc1c[nH]c2ncccc12)C(=O)O; Phe(4-CH2NH2) = NCc1ccc(C[C@H](N)C(=O)O)cc1; Pro(trans-4-F) = O=C(O)[C@@H]1C[C@@H](F)CN1; Bta = N[C@@H](Cc1csc2ccccc12)C(=O)O; Ala(cPr) = N[C@@H](CC1CC1)C(=O)O; Hyp = O=C(O)[C@@H]1C[C@@H](O)CN1; NMeF = CN[C@@H](Cc1ccccc1)C(=O)O; dNMeNle = CCCC[C@@H](NC)C(=O)O; NMeNle = CCCC[C@H](NC)C(=O)O; NMeM = CN[C@@H](CCSC)C(=O)O; ξR = N=C(N)NCCCC(N)C(=O)O; NMeA = CN[C@@H](C)C(=O)O; Orn = NCCC[C@H](N)C(=O)O; dDap = NC[C@@H](N)C(=O)O; Dab = NCC[C@H](N)C(=O)O; Dap = NC[C@H](N)C(=O)O; ξP = O=C(O)C1CCCN1; ξC = NC(CS)C(=O)O; Sar = CNCC(=O)O

Key:
[1] = target: T1, LK35.2-hPD-L1 cells / PE-labeled PD-1-Ig (Homo sapiens, UniProt Q9NZQ7); assay: LK35.2-hPD-L1 cell binding high-content screening assay; assay type: cell-based
T1 construct: expressed in transfected cells; host or cells: LK35.2 mouse B cell line
How it was run: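 Compound effect on PD-1/PD-L1 binding is measured by imaging cell-associated phycoerythrin signal. Human PD-1-Ig (PE on Ig tag, 1 nM final) is applied with compound to a murine B cell line overexpressing human PD-L1 for 1 h at 37 °C in serum-containing RPMI.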

Human PD-L1/PD-1 = target: T2, Human PD-L1/PD-1 (Homo sapiens, UniProt Q9NZQ7); assay: HTRF PD-1-Ig/PD-L1-His binding assay (human PD-L1); conditions: cluster symbol; read-out: HTRF IC50 cluster
T2 construct: made in house; host or cells: HEK293T
How it was run: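 Steps: truncated PD-1-Ig and PD-L1-His fusions are incubated in dPBS containing 0.1% (w/v) BSA and 0.05% (v/v) Tween-20. Detection antibodies are then added (Eu cryptate anti-Ig at 1 nM final, APC anti-His at 20 nM final), and time-resolved FRET is measured.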

[2] = cell binding assay, cell line not given, cluster symbol, read-out: CBA IC50 cluster
[3] = cluster symbol, cell line of CBA not given (LK35.2-hPD-L1 or 293T-hPD-L1), read-out: CBA IC50 cluster

T1 sequence (Q9NZQ7 19-290): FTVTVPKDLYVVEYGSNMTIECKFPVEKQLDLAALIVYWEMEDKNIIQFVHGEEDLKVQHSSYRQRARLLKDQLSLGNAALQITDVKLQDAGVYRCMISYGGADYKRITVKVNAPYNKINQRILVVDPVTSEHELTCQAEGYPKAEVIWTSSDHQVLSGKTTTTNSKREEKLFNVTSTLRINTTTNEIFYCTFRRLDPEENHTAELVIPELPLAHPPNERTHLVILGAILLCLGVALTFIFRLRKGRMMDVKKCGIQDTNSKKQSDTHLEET
T2 sequence (Q9NZQ7 with tags, fused parts or gaps): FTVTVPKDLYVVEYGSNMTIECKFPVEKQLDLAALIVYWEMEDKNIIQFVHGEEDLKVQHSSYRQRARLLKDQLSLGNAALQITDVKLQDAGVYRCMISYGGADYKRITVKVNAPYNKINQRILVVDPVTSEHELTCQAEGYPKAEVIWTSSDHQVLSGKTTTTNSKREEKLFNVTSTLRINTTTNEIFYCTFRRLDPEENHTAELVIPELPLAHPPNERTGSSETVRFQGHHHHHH

IC50 [1, 2] [nM]	IC50 (Human PD-L1/PD-1) [nM]	IC50 [1, 3] [nM]	IC50 ([1]; cell binding assay, cell line not given, value given instead of cluster, read-out: CBA IC50 value) [nM]	SMILES
4.78 to 72.9	6.76 to 30.3	–	–	CCCC[C@H]1C(=O)N(C)[C@@H](CCCC)C(=O)N[C@@H](CCCNC(=N)N)C(=O)N[C@H](C(=O)NCC(N)=O)CSCC(=O)N[C@@H](Cc2ccc(O)cc2)C(=O)N(C)[C@@H](C)C(=O)N[C@@H](CN)C(=O)N2CCC[C@H]2C(=O)N[C@@H](Cc2c[nH]cn2)C(=O)N[C@@H](CCC(=O)O)C(=O)N2C[C@H](O)C[C@H]2C(=O)N[C@@H](Cc2c[nH]c3ccccc23)C(=O)N[C@@H](CO)C(=O)N[C@@H](Cc2c[nH]c3ccccc23)C(=O)N1C [Example 5123] ({CH2CO}-Y[NMeA][Dap]PHE[Hyp]WSW[NMeNle][NMeNle]RCG-NH2; thioether N-14)
4.78 to 72.9	6.76 to 30.3	–	–	CCCC[C@H]1C(=O)N(C)CC(=O)N[C@@H](CC(=O)O)C(=O)N[C@@H](C(C)C)C(=O)N(C)[C@@H](Cc2ccccc2)C(=O)N[C@@H](Cc2ccccc2)C(=O)N(C)CC(=O)N[C@@H](Cc2c[nH]c3ccccc23)C(=O)N[C@@H](Cc2ccc(O)cc2)C(=O)N[C@@H](CC(C)C)C(=O)N[C@H](C(=O)NCC(N)=O)CSCC(=O)N[C@@H](Cc2ccccc2)C(=O)N(C)[C@@H](Cc2ccccc2)C(=O)N1C [Example 3534] (HELM PEPTIDE1{[O=C(C[*:3])[*:2]].F.[meF].[CCCC[C@@H](C(=O)[*:2])N(C)[*:1]].[Sar].D.V.[meF].F.[Sar].W.Y.L.C.G.[am]}$PEPTIDE1,PEPTIDE1,1:R3-14:R3$$$V2.0)
0.158 to 4.71	0.385 to 6.74	–	–	CCCC[C@H]1C(=O)N(C)[C@@H](CCCC)C(=O)N[C@@H](CCN)C(=O)N[C@H](C(=O)NCC(N)=O)CSCC(=O)N[C@@H](Cc2ccc(O)cc2)C(=O)N(C)[C@@H](C)C(=O)N[C@@H](CC(N)=O)C(=O)N2CCC[C@H]2C(=O)N[C@@H](Cc2c[nH]cn2)C(=O)N[C@@H](CCC(=O)O)C(=O)N2C[C@H](F)C[C@H]2C(=O)N[C@@H](Cc2c[nH]c3ccccc23)C(=O)N[C@@H](CCN)C(=O)N[C@@H](Cc2c[nH]c3ccccc23)C(=O)N1C [Example 13001] ({CH2CO}-Y[NMeA]NPHE[Pro(trans-4-F)]W[Dab]W[NMeNle][NMeNle][Dab]CG-NH2; thioether N-14)
–	> 30.5	> 74.3	–	CCCC[C@H]1C(=O)N(C)[C@@H](CCCC)C(=O)N[C@@H](CCCNC(=N)N)C(=O)N[C@H](C(=O)NCC(N)=O)CSCC(=O)N[C@@H](Cc2ccccc2)C(=O)N(C)[C@@H](C)C(=O)N[C@@H](CC(N)=O)C(=O)N2CCC[C@H]2C(=O)N[C@@H](Cc2cnc[nH]2)C(=O)N[C@@H](CC(C)C)C(=O)N(C)CC(=O)N[C@@H](Cc2c[nH]c3ccccc23)C(=O)N[C@@H](CO)C(=O)N[C@@H](Cc2c[nH]c3ncccc23)C(=O)N1C [Example 1038] ({CH2CO}-F[NMeA]NPHL[Sar]WS[Trp(7-aza)][NMeNle][NMeNle]RCG-NH2; thioether N-14)
> 74.3	6.76 to 30.3	–	–	CCCC[C@H]1C(=O)N(C)[C@@H](CCCC)C(=O)N[C@@H](CCCNC(=N)N)C(=O)N[C@H](C(=O)NCC(N)=O)CSCC(=O)N[C@@H](Cc2ccc(C(C)(C)C)cc2)C(=O)N(C)[C@@H](C)C(=O)N[C@@H](CC(N)=O)C(=O)N2CCC[C@H]2C(=O)N[C@@H](CN)C(=O)N[C@@H](CC(C)C)C(=O)N2C[C@H](O)C[C@H]2C(=O)N[C@@H](Cc2c[nH]c3ccccc23)C(=O)N[C@@H](CO)C(=O)N[C@@H](Cc2c[nH]c3ccccc23)C(=O)N1C [Example 7036] ({CH2CO}-[Phe(4-tBu)][NMeA]NP[Dap]L[Hyp]WSW[NMeNle][NMeNle]RCG-NH2; thioether N-14)
4.78 to 72.9	0.385 to 6.74	–	–	CCCC[C@H]1C(=O)N(C)[C@@H](CCCC)C(=O)N[C@@H](CC2CC2)C(=O)N[C@H](C(=O)NCC(N)=O)CSCC(=O)N[C@@H](Cc2ccc(O)cc2)C(=O)N(C)[C@@H](C)C(=O)N[C@@H](CC(N)=O)C(=O)N2CCC[C@H]2C(=O)N[C@@H](Cc2c[nH]cn2)C(=O)N[C@@H](CCC(N)=O)C(=O)N2C[C@H](O)C[C@H]2C(=O)N[C@@H](Cc2c[nH]c3ccccc23)C(=O)N[C@@H](CO)C(=O)N[C@@H](Cc2c[nH]c3ccccc23)C(=O)N1C [Example 5081] ({CH2CO}-Y[NMeA]NPHQ[Hyp]WSW[NMeNle][NMeNle][Ala(cPr)]CG-NH2; thioether N-14)
–	6.76 to 30.3	0.158 to 4.71	–	CCCC[C@H]1C(=O)N(C)[C@@H](CCCC)C(=O)N[C@@H](CCCN)C(=O)N[C@H](C(=O)NCC(N)=O)CSCC(=O)N[C@@H](Cc2ccc(O)cc2)C(=O)N(C)[C@@H](C)C(=O)N[C@@H](CC(N)=O)C(=O)N2CCC[C@H]2C(=O)N[C@@H](Cc2c[nH]cn2)C(=O)N[C@@H](CC(C)C)C(=O)N2C[C@H](O)C[C@H]2C(=O)N[C@@H](Cc2c[nH]c3ccccc23)C(=O)N[C@@H](CCN)C(=O)N[C@@H](Cc2c[nH]c3ccccc23)C(=O)N1C [Example 1157] ({CH2CO}-Y[NMeA]NPHL[Hyp]W[Dab]W[NMeNle][NMeNle][Orn]CG-NH2; thioether N-14)
0.158 to 4.71	0.385 to 6.74	–	–	CCCC[C@H]1C(=O)N(C)[C@@H](CCCC)C(=O)NC(CCCNC(=N)N)C(=O)N[C@H](C(=O)NCC(N)=O)CSCC(=O)N[C@@H](Cc2ccc(O)cc2)C(=O)N(C)[C@@H](C)C(=O)N[C@@H](CC(N)=O)C(=O)N2CCC[C@H]2C(=O)N[C@@H](CN)C(=O)N[C@@H](CC(C)C)C(=O)N2C[C@H](O)C[C@H]2C(=O)N[C@@H](Cc2c[nH]c3ccccc23)C(=O)N[C@@H](CO)C(=O)N[C@@H](Cc2c(-c3ccc(OCC)cc3)[nH]c3ccccc23)C(=O)N1C (some centres unmarked) [Example 7009] ({CH2CO}-Y[NMeA]NP[Dap]L[Hyp]WS[X2][NMeNle][NMeNle][ξR]CG-NH2; thioether N-14)
0.158 to 4.71	6.76 to 30.3	–	–	CCCC[C@H]1C(=O)N(C)CC(=O)N[C@@H](CC(=O)O)C(=O)N[C@@H](C(C)C)C(=O)N(C)[C@@H](Cc2ccccc2)C(=O)N[C@@H](Cc2ccc(CN)cc2)C(=O)N(C)CC(=O)N[C@@H](Cc2c[nH]c3ccccc23)C(=O)N[C@@H](Cc2ccc(O)cc2)C(=O)N[C@@H](CC(C)C)C(=O)N[C@H](C(=O)NCC(N)=O)CSCC(=O)N[C@@H](Cc2ccccc2)C(=O)N(C)[C@@H](Cc2ccccc2)C(=O)N1C [Example 3524] ({CH2CO}-F[NMeF][NMeNle][Sar]DV[NMeF][Phe(4-CH2NH2)][Sar]WYLCG-NH2; thioether N-13)
–	6.76 to 30.3	4.78 to 72.9	–	CCCC[C@@H]1C(=O)N(C)[C@H](CCCC)C(=O)N[C@@H](CN)C(=O)N[C@@H](C(=O)NCC(N)=O)CSCC(=O)N[C@@H](Cc2ccc(O)cc2)C(=O)N2CCCC2C(=O)N[C@H](CC(=O)O)C(=O)N2CCC[C@H]2C(=O)N[C@H](CN)C(=O)N[C@@H](CCC(N)=O)C(=O)N2CCCC2C(=O)N[C@H](Cc2c[nH]c3ccccc23)C(=O)N[C@@H](CCN)C(=O)N[C@@H](Cc2c[nH]c3ccccc23)C(=O)N1C (some centres unmarked) [Example 1213] ({CH2CO}-Y[ξP][dD]P[dDap]Q[ξP][dW][Dab]W[dNMeNle][dNMeNle][Dap][dC]G-NH2; thioether N-14)
–	6.76 to 30.3	–	74.3	CCCC[C@H]1C(=O)N(C)[C@@H](CCCC)C(=O)N[C@@H](CO)C(=O)N[C@H](C(=O)NCC(N)=O)CSCC(=O)N[C@@H](Cc2ccc(O)cc2)C(=O)N(C)[C@@H](C)C(=O)N[C@@H](CCN)C(=O)N2CCC[C@H]2C(=O)N[C@@H](Cc2c[nH]cn2)C(=O)N[C@@H](CCC(=O)O)C(=O)N2C[C@H](O)C[C@H]2C(=O)N[C@@H](Cc2c[nH]c3ccccc23)C(=O)N[C@@H](C(C)C)C(=O)N[C@@H](Cc2c[nH]c3ccccc23)C(=O)N1C [Example 5097] ({CH2CO}-Y[NMeA][Dab]PHE[Hyp]WVW[NMeNle][NMeNle]SCG-NH2; thioether N-14)
–	> 30.5	> 74.3	–	CCCC[C@H]1C(=O)N(C)CC(=O)N[C@@H](CC(=O)O)C(=O)N[C@@H](CCCNC(=N)N)C(=O)N(C)[C@@H](Cc2ccccc2)C(=O)N[C@@H](Cc2ccc(O)cc2)C(=O)N(C)CC(=O)N[C@@H](Cc2c[nH]c3ccccc23)C(=O)N[C@@H](Cc2ccc(O)cc2)C(=O)N[C@@H](CC(C)C)C(=O)N[C@H](C(=O)NCC(N)=O)CSCC(=O)N[C@@H](Cc2ccccc2)C(=O)N(C)[C@@H](Cc2ccccc2)C(=O)N1C [Example 3151] (HELM PEPTIDE1{[O=C(C[*:3])[*:2]].F.[meF].[CCCC[C@@H](C(=O)[*:2])N(C)[*:1]].[Sar].D.R.[meF].Y.[Sar].W.Y.L.C.G.[am]}$PEPTIDE1,PEPTIDE1,1:R3-14:R3$$$V2.0)
0.158 to 4.71	0.385 to 6.74	–	–	CCCC[C@H]1C(=O)N[C@@H](CCCNC(=N)N)C(=O)NC(C(=O)NCC(N)=O)CSCC(=O)N[C@@H](Cc2ccc(O)cc2)C(=O)N(C)[C@@H](C)C(=O)N[C@@H](CC(N)=O)C(=O)N2CCC[C@H]2C(=O)N[C@@H](CN)C(=O)N[C@@H](CC(C)C)C(=O)N2CCC[C@H]2C(=O)N[C@@H](Cc2c[nH]c3ccccc23)C(=O)N[C@@H](CO)C(=O)N[C@@H](Cc2csc3ccccc23)C(=O)N(C)[C@@H](CCSC)C(=O)N1C (some centres unmarked) [Example 9090] ({CH2CO}-Y[NMeA]NP[Dap]LPWS[Bta][NMeM][NMeNle]R[ξC]G-NH2; thioether N-14)
